Test systems include MCF7 breast; TK-10 renal; NCI-H460 lung; NCI-H226 lung; EKVX NSCLC; A498 renal; OVCAR-4 ovarian; UO-31 renal; HCC-2998 colon; CCRF-CEM leukemia.
Assay in all cases: DTP human tumour cell line panel, 48 h

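Test compounds were applied to cells in 96-well plates for 48 hours at 5 doses. The concentration for 50% growth inhibition is given as GI50. TGI: concentration producing complete growth inhibition.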

One may read the GI50 as the concentration that inhibits growth by half. For orientation: TGI means the concentration giving total growth inhibition. A lower TGI goes with greater sensitivity of the cells. On to `C[C@H](O)C(=O)N1CCC(CCn2c(Sc3cc4c(cc3Br)OCO4)nc3c(N)ncnc32)CC1`, for which the GI50 was 0.368 µM in the test with MCF7 breast; 1.3 µM in the test with TK-10 renal; 0.432 µM in the test with NCI-H460 lung; 4.01 µM with NCI-H226 lung; 4.11 µM in the test with EKVX NSCLC; 3.35 µM in the test on A498 renal. In addition, the GI50 was above 20.1 µM in the test on OVCAR-4 ovarian, 2.05 µM in the test on UO-31 renal, 0.867 µM in the test on HCC-2998 colon and 0.49 µM with CCRF-CEM leukemia. For the same compound, the TGI in the test with MCF7 breast, in the test with TK-10 renal, in the test on NCI-H460 lung, in the test on NCI-H226 lung, with EKVX NSCLC and in the test with A498 renal was above 100 µM each time. The total growth inhibition concentration (TGI) with OVCAR-4 ovarian is above 100 µM; in the test with UO-31 renal, above 100 µM; with HCC-2998 colon, above 43.3 µM; in the test on CCRF-CEM leukemia, above 100 µM.
`C/C(N=NC(=S)N(C)C)=C1\C=CC=CN1O`: the total growth inhibition concentration (TGI) in the test with MCF7 breast, in the test on TK-10 renal, in the test with NCI-H460 lung, in the test on NCI-H226 lung, in the test with EKVX NSCLC and in the test on A498 renal was above 100 µM throughout. The TGI was above 100 µM in the test on OVCAR-4 ovarian, above 97.4 µM in the test with UO-31 renal, above 44.9 µM in the test on HCC-2998 colon and above 63.5 µM in the test on CCRF-CEM leukemia.
Turning to `CCn1c(SCc2ccc(C)cc2)nnc1-c1nn(-c2ccc(Cl)cc2Cl)c(-c2ccc(Cl)cc2)c1C`, the GI50 in the test with MCF7 breast is 2.26 µM; in the test on TK-10 renal it was 2.61 µM; in the test with NCI-H460 lung it was 1.46 µM; with NCI-H226 lung, 2.26 µM; with EKVX NSCLC it was 2.88 µM; with A498 renal it was 1.37 µM. The GI50 is 1.79 µM in the test on OVCAR-4 ovarian, 2.66 µM with UO-31 renal, 2.35 µM with HCC-2998 colon and 2.51 µM in the test with CCRF-CEM leukemia. The concentration for total growth inhibition (TGI) turned out to be 11.4 µM in the test on MCF7 breast; 10.9 µM in the test on TK-10 renal; 10.5 µM in the test with NCI-H460 lung; 13.9 µM in the test with NCI-H226 lung; 13 µM with EKVX NSCLC; 7.88 µM in the test with A498 renal. The TGI in the test on OVCAR-4 ovarian came to 12.4 µM; in the test with UO-31 renal it was 10.8 µM; in the test on HCC-2998 colon, 13.2 µM; in the test with CCRF-CEM leukemia, 13.5 µM.
As to `C[C@]12CC[C@@H]3c4cc(OCC(F)(F)F)c(O)cc4/C(=N/O)C[C@H]3[C@@H]1CC[C@@H]2O`, the concentration for total growth inhibition (TGI) in the test on MCF7 breast is 33.9 µM; with TK-10 renal, above 100 µM; in the test on NCI-H460 lung it was 3.79 µM; in the test on NCI-H226 lung, above 40.8 µM; in the test with EKVX NSCLC it was 28.9 µM; in the test with A498 renal it was 21.5 µM. The TGI with OVCAR-4 ovarian is 39 µM; in the test with UO-31 renal it was 20.8 µM; in the test with HCC-2998 colon it was 11.4 µM; in the test with CCRF-CEM leukemia, below 0.0292 µM. The 50% growth inhibitory concentration (GI50) in the test with NCI-H460 lung was 0.0362 µM; in the test on UO-31 renal, 0.149 µM.
Take `COc1ccc(CCN2COc3c([C@@H](C)CCC=C(C)C)ccc(C)c3C2)cc1OC`: the GI50 is 3.29 µM in the test on MCF7 breast; 2.19 µM with TK-10 renal; 2.06 µM in the test on NCI-H460 lung; 8.64 µM in the test with NCI-H226 lung; 5.14 µM in the test on EKVX NSCLC; 1.96 µM in the test on A498 renal. For the same compound, the GI50 in the test with OVCAR-4 ovarian was 2.99 µM; in the test with UO-31 renal it was 2.45 µM; in the test on HCC-2998 colon, 1.59 µM; in the test on CCRF-CEM leukemia, 3.49 µM. For the same compound, the TGI in the test on MCF7 breast is 11 µM; with TK-10 renal, 5.95 µM; with NCI-H460 lung, 4.3 µM; in the test on NCI-H226 lung, 21.6 µM; in the test with EKVX NSCLC, 25.4 µM; in the test on A498 renal it was 11.9 µM. Also, the TGI in the test on OVCAR-4 ovarian is 16 µM; with UO-31 renal, 12.3 µM; in the test with HCC-2998 colon, 2.96 µM; in the test on CCRF-CEM leukemia it was 21.1 µM.
With `CC/C=C\C[C@H]1C/C=C2/C(=O)C=C[C@@H]2C/C=C\CCCC(=O)O1`, the GI50 in the test with MCF7 breast is 0.395 µM; in the test on TK-10 renal it was 1.8 µM; with NCI-H460 lung, 2.16 µM; with NCI-H226 lung, 1.94 µM; in the test on EKVX NSCLC it was 2.04 µM; with A498 renal it was 1.82 µM. Moreover, the GI50 with OVCAR-4 ovarian was 2.73 µM; with UO-31 renal, 1.13 µM; in the test with HCC-2998 colon, 1.76 µM; in the test on CCRF-CEM leukemia, 0.339 µM. Moreover, the total growth inhibition concentration (TGI) in the test with MCF7 breast is 8.06 µM; in the test on TK-10 renal, 5.03 µM; with NCI-H460 lung, 8.86 µM; in the test on NCI-H226 lung, 4.75 µM; in the test on EKVX NSCLC it was 5.89 µM; with A498 renal, 3.35 µM. Besides, the total growth inhibition concentration (TGI) was found to be 16.3 µM in the test with OVCAR-4 ovarian, 2.48 µM with UO-31 renal, 3.22 µM in the test on HCC-2998 colon and 5.04 µM with CCRF-CEM leukemia.
`C=C1C(=O)OC2/C=C(\COC(C)=O)CCC(OC(C)=O)C3=CC(OC3=O)C12` (configuration not stated): the TGI amounted to 15.5 µM with MCF7 breast; 15.4 µM in the test with TK-10 renal; 37.8 µM in the test on NCI-H460 lung; 46.4 µM with NCI-H226 lung; 34.3 µM in the test with EKVX NSCLC; 34.1 µM in the test on A498 renal. Moreover, the TGI is 52 µM in the test on OVCAR-4 ovarian, 35.5 µM in the test with UO-31 renal, 29.2 µM in the test with HCC-2998 colon and 4.63 µM in the test on CCRF-CEM leukemia.
Consider `O=S(=O)(Nc1cc(Sc2cccc3cccnc23)c(O)c2ccccc12)c1ccccc1`, for which the GI50 was 0.52 µM with MCF7 breast; 5.08 µM with TK-10 renal; 0.499 µM in the test on NCI-H460 lung; 2.45 µM in the test with NCI-H226 lung; 1.01 µM in the test with EKVX NSCLC; 4.01 µM in the test on A498 renal. The GI50 in the test with OVCAR-4 ovarian is 0.474 µM; in the test with UO-31 renal, 0.734 µM; with HCC-2998 colon it was 4.77 µM; in the test on CCRF-CEM leukemia, 0.426 µM. For the same compound, the concentration for total growth inhibition (TGI) in the test with MCF7 breast is 2.85 µM; in the test on TK-10 renal it was 18.3 µM; in the test on NCI-H460 lung, 13.7 µM; in the test with NCI-H226 lung it was 25.4 µM; with EKVX NSCLC, 8.55 µM; in the test on A498 renal, 30.6 µM. For the same compound, the TGI came out at 1.75 µM in the test on OVCAR-4 ovarian, 4.76 µM in the test with UO-31 renal, 19.1 µM with HCC-2998 colon and 16 µM in the test with CCRF-CEM leukemia.

Values taken from PubChem BioAssay (NCI).
